In PubChem BioAssay AID179 (DTP/NCI, 2004):
pEC50, pIC50: −log10 of the molar value. The source made the active and inactive calls.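 The calls were made as follows: active = compounds giving half or more protection of infected cells from virus-caused growth loss, again on retest; inactive = the rest.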 Where a SMILES comes first, the peptide text is derived from it.

Test system: CEM cells HIV-1 protection, formazan growth assay
Experiment: NCI AIDS Antiviral Assay
Conditions: for pIC50: measured here: growth of uninfected CEM cells
In short: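 CEM (human) cells, HIV-1 infected vs uninfected, 5-point dosing, formazan growth read-out. Retest threshold 50% protection.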

Row | SMILES | pEC50 | pIC50 | outcome
1 | O=C(CC(=O)Nc1ccccc1Cl)NNC(c1cc(N=Nc2ccc(Br)cc2)ccc1O)P(O)O (configuration not stated) | < 4.00 | 5.88 | 
2 | O=c1cc(NNc2ccccc2)[nH]c(=O)[nH]1 | < 3.70 | 5.99 | 
3 | COc1ccc(/C=C2\CCc3ccccc3C2=O)cc1 | < 4.71 | 4.90 | 
4 | O=C1CN(c2ccccc2)C(=O)C1C(=O)Nc1ccc(Cl)c(Cl)c1 (configuration not stated) | < 5.40 | 5.41 | 
5 | CCNc1ccc2c(c1)C(=O)N(OS(C)(=O)=O)C2=O |  |  | inactive
6 | CCOC(=O)CCn1[nH]c(=O)c(Cl)c(Cl)c1=O |  |  | inactive
7 | Oc1ccc(SCc2cc(O)ccc2O)cc1 | < 3.70 | 5.15 | 
8 | c1ccc(P2c3ccccc3Nc3ccccc32)cc1 | < 3.70 | 4.21 | 
9 | Nc1ncnc2c1ncn2C1CC(CO)C(CO)O1 (configuration not stated) |  |  | inactive
10 | N#Cc1c(Br)n(C2OC(CO)C(O)C2O)c2ncn3ccnc3c12 (configuration not stated) | < 3.70 | < 3.70 | 
11 | CC(C)Oc1ccc(CNC2=NCCO2)c2ccccc12 | < 3.70 | 4.75 | 
12 | COc1ccccc1N1C(=O)/C(=C\c2cc(OC)c(OC)c(OC)c2)SC1c1ccccc1 (configuration not stated) | < 3.70 | 4.40 | 
13 | C/C(=N\NC(=S)N1CCC1)c1ccccn1 | < 6.70 | 8.28 | 
14 | NCCCCC(NC(=O)C(CO)NC(=O)C(CO)NC(=O)CN)C(=O)NC(CO)C(=O)NC(CCCCN)C(=O)N1CCCC1C(=O)NC(CCCCN)C(=O)NC(CC(=O)O)C(N)=O (configuration not stated) (H-GSSKSKPKD-NH2; configuration not given here) | < 3.57 | < 3.57 | 
15 | O=C(O)Cc1ccccc1CCc1ccccc1Cl | < 3.32 | 3.60 | 
16 | CCOC(=O)c1c(CN2CCNCC2)nc2ccc(Cl)cc2c1-c1ccccc1 | < 4.20 | 4.47 | 
17 | CC1(Br)CC2OC3(Br)C=CC(C)(O)C2(CC1=O)C3(C)C (configuration not stated) |  |  | inactive
18 | CC(=O)Nc1ccc(/C=C2\SC(=S)N(C=C(C#N)C#N)C2=O)cc1 | < 3.70 | 4.31 | 
